Measurements as given in PMC10283052, “Intranasal delivery of mitochondrial protein humanin rescues cell death and promotes mitochondrial function in Parkinson's disease” (Theranostics, 2023).
Entries after “also recorded” stand apart in the source; their conditions may differ.

Legend:
[1] = system: differentiated PC12 cells; assay: Pathway inhibitors on HN effects in MPP+-challenged differentiated PC12 cells; format: cell-based, rat; conditions: for neuroprotective effect of HN against MPP+ neurotoxicity (MTT viability): inhibitor 2 h before HN 10 μM, then MPP+ 1 mM 24 h, MK2206 1 μM, wortmannin 1 μM, U0126 10 μM
Experimental: For neuronal differentiation of PC12 cells, the cells were grown in DMEM containing 1.5% horse serum, 1.5% FBS, 1% P/S, and 100 ng/mL nerve growth factor (NGF, Thermo Fisher Scientific) every 2 days. PC12 cells were differentiated for 7 days and used for subsequent experiments.
Mouse brain tissue samples and cells were homogenized in radioimmunoprecipitation assay (RIPA) buffer (Cell Signaling, Danvers, MA, USA) in the presence of a protease and phosphatase inhibitor cocktail (Thermo Fisher Scientific). The samples were sonicated on ice, and the supernatant was collected after centrifugation at 4°C at 10,000 g for 5 min. The protein samples were loaded and separated using Tris-glycine SDS-PAGE. To detect the HN peptide, the proteins were separated into three layers of tricine SDS-PAGE, as previously described. The separated proteins were transferred to nitrocellulose membranes (GenDEPOT, Barker, TX, USA). The membranes were blocked for 0.5 h, followed by incubation with appropriate primary antibodies overnight at 4°C. The primary antibodies used were as follows: anti-tyrosine hydroxylase (Cat # P40101, Pel-Freez Biologicals), anti-HN (Cat # RA19000, Neuromics), anti-β-actin (Cat # GTX109639, GeneTex, Irvine, CA, USA), and anti-GAPDH (Cat # AM4300, Thermo Fisher Scientific). After washing, the membranes were incubated with horseradish peroxidase-labeled secondary antibodies (Cell Signaling Technology) and visualized using enhanced chemiluminescence reagents (DoGen, Seoul, South Korea). The results were analyzed using the ImageJ densitometry system. In order to detect circulating humanin in human plasma samples, proteins were extracted by trichloroacetic acid (TCA) precipitation. Loading of an equal amount of protein was confirmed by Coomassie staining of plasma samples which were depleted of albumin by Minute™ Albumin Depletion Reagent (Invent Biotechnologies, Plymouth, MN, USA).
Following treatment with the aforementioned reagents, the cells were washed and treated with 3-(4,5-dimethylthiazol-2-yl)-2,5-diphenyl-tetrazolium bromide (MTT, Thermo Fisher Scientific). Briefly, the cells were seeded in a 96-well plate at a density of 5 × 10^3 cells/well. After 24 h, a neurotoxin 1-methyl-4-phenylpyridinium (MPP^+) (Sigma-Aldrich) was applied to induce toxicity in neuronal cells. Next, the cells were incubated with MTT for 4 h, and formazan crystals were solubilized using DMSO. Absorbance was measured using a multi-plate reader at a wavelength of 570 nm, and the viability of the cells was recorded as a percentage of the control.

SH-SY5Y cells [2] = assay: FITC-HN immunofluorescence in cells; format: cell-based, human
Experimental: For HN treatment, HN was synthesized as per Fmoc-based SPPS at GL Biochem (Shanghai, China). The lyophilized synthesized HN peptide or HN peptide conjugated with fluorescein isothiocyanate (FITC-HN) was dissolved in Dimethyl sulfoxide (DMSO) and incubated at 37 ℃ with mild stirring (100 rpm) for 1 h to prepare a 10 mM stock solution. The stock solutions were kept at -20 ℃ until use.
For staining, the cells were seeded on PDL-coated glass slides and treated as indicated above. The samples were fixed using methanol and permeabilized using 0.1% Triton X-100 in PBS. […] Fluorescent images were captured at the Neuroscience Translational Research Solution Center (Busan, South Korea) using an LSM 700 confocal microscope (Zeiss, Jena, Germany). The mitochondrial network morphology was assessed using the FIJI/ImageJ software as described previously.

[3] = Brain delivery after intranasal FITC-HN; format: in vivo, mouse
Experimental: For intranasal HN treatment, the synthetic HN peptide was delivered according to a procedure reported by Capsoni et al. The synthetic HN peptide was diluted in ddH2O to a concentration of 0.1 and 5 mg/kg for mice (total volume of 40 μL) at 37 ℃ with mild stirring. The mice were held firmly in one hand in a supine position with their head at 90°. Synthetic HN was administered in the form of 5-μL drops over 20 min in alternating nostrils every 3 min. After administration, the heads of the mice were held in the same position to prevent loss of the applied solution from the nares.
To stain the mouse brain tissue samples, transcardial perfusion was performed using PBS and 4% paraformaldehyde in PBS. The brain and trigeminal ganglia were removed, post-fixed using 4% paraformaldehyde in PBS, and stored in a 30% sucrose solution at 4 ℃ until they sank. Coronal sections were prepared (thickness: 10 µm) using a sliding microtome. After blocking with 5% BSA, the samples were incubated with the appropriate primary antibody as mentioned above. […] To enhance immune signals in immunohistochemistry, a Vectastain Elite ABC Standard Kit (Vector Laboratories) was used, as per the manufacturer's instructions. The stained sections were scanned using a Pannormic MIDI scanner (3[…], Budapest, Hungary) at the Neuroscience Translational Research Solution Center. Unbiased stereological analyses were performed as previously described. […] Fluorescent images were captured at the Neuroscience Translational Research Solution Center (Busan, South Korea) using an LSM 700 confocal microscope (Zeiss, Jena, Germany). Mitochondrial network morphology was further assessed using the FIJI/ImageJ software as described previously.
A commercially available ELISA kit (MyBioSource, San Diego, CA, USA) was used to measure plasma and brain HN levels. To measure the protein levels of HN, brain homogenates (100 μg protein/well) and 100 μL of plasma samples were loaded onto competitive ELISA plates according to the manufacturer's instructions. The absorbance was measured using a microplate reader (Molecular Devices, Sunnyvale, CA, USA) at a wavelength of 450 nm.

SH-SY5Y cells [4] = assay: Real-time qPCR of mitochondrial rRNA and humanin transcripts; format: cell-based, human; conditions: IMT1 co-treated with HN for 24 h, dose-dependent
Experimental: For real-time qPCR, total RNA was extracted using TRIzol reagent (Thermo Fisher Scientific). cDNA was synthesized using a cDNA synthesis kit (Bioneer Corporation), according to the manufacturer's protocol. The mRNA levels were analyzed in a LightCycler 96 (Roche, Basel, Switzerland) using SYBR Green I master mix and SensiFAST™ SYBR® No-ROX Kit (Bioline, Paris, France). B2M (beta-2-microglobulin) gene expression was used to normalize gene expression data. The primer sequences used in this experiment are in Table S2.

[5] = system: transgenic mouse model of AD; conditions: without altering Aβ production; cited from earlier work
Text: Humanin is the first peptide representing a novel group of naturally occurring bioactive peptides encoded by the mitochondrial genome, termed MDPs. Since its discovery in 2001 [12], humanin has been proposed as a potential protective peptide for neurological disorders, cardiovascular diseases, and metabolic dysfunction. The central role of humanin in the protective response has been extensively studied in AD [13]. Maftei et al., using affinity mass spectrometry, identified that humanin can directly bind to amyloid β (Aβ), which subsequently disrupts the oligomerization of Aβ [57]. Further ...

[6] = wortmannin 1 μM pre-treatment, HN 10 μM, MPP+ 1 mM

COC[C@H]1OC(=O)c2coc3c2[C@@]1(C)C1=C(C3=O)[C@@H]2CCC(=O)[C@@]2(C)C[C@H]1OC(C)=O [wortmannin]
neuroprotective effect of HN against MPP+ neurotoxicity (MTT viability) [1]: abolished the neuroprotective effect of HN
induction of intracellular humanin by HN treatment, western blot ([1]; wortmannin 1 μM pre-treatment 1 h, HN 10 μM, 24 h, MPP+-exposed cells): significantly inhibited; also recorded: blocked the induction of HN expression
HN-enhanced mitochondrial mass [1, 6]: significantly blocked the impact of HN on enhancing mitochondrial mass
HN-promoted mitochondrial biogenesis, western blot [1, 6]: significantly blocked

fluorescein isothiocyanate-conjugated humanin [FITC-HN]
intracellular humanin signal (antibody staining) (SH-SY5Y cells [2]; 24 h FITC-HN treatment, untreated cells show weak signal): strong signal of intracellular humanin
intracellular FITC fluorescence signal (SH-SY5Y cells [2]; 24 h after FITC-HN treatment, suggests degradation of the FITC-HN peptide): no detectable fluorescent signal
intracellular FITC fluorescence signal (SH-SY5Y cells [2]; within 30 min of FITC-HN treatment, confocal immunofluorescence): strong intracellular fluorescence signal
FITC-HN distribution in trigeminal nerve endoneurium ([3]; cross-sections of trigeminal nerves after intranasal administration, transgenic PD mice): diffuse to punctate in the perineural space of the endoneurium
FITC-HN signal in trigeminal nerve perineurium region ([3]; cross-sections of trigeminal nerves, compared with endoneurium): more prominent FITC-HN signal
duration of widespread brain distribution after intranasal administration ([3]; human α-Syn transgenic PD mice, ELISA of brain regions (CB, OB, ST, HIP, SN, CTX)): up to 1 h
time after intranasal injection at which FITC-HN is detectable in midbrain (VTA, aqueduct) ([3]; human α-Syn-overexpressing transgenic PD mice, fluorescence imaging): ≤ 30 min
FITC-HN localisation in brain parenchyma ([3]; within 30 minutes after intranasal treatment, GFAP staining): found in microvascular endothelial cells surrounded by astrocytic endfeet

NC1(c2ccc(-c3nc4ccn5c(=O)[nH]nc5c4cc3-c3ccccc3)cc2)CCC1 [MK-2206]
neuroprotective effect of HN against MPP+ neurotoxicity (MTT viability) [1]: abolished the neuroprotective effect of HN

Cc1ccccc1-c1cc(=O)oc2cc(OC(C)C(=O)N(C)C)ccc12 (stereo not shown) [IMT1, reference compound]
humanin transcripts induced by HN peptide (SH-SY5Y cells [4]): markedly attenuated humanin transcripts

N#CC(=C(/N)Sc1ccccc1N)/C(C#N)=C(/N)Sc1ccccc1N [U0126]
neuroprotective effect of HN against MPP+ neurotoxicity (MTT viability) [1]: did not alter cell viability

S14G-HN: a highly potent human derivative (MAPRGFSCLLLLTGEIDLPVKRRA; Humanin; UniProt Q8IVG9 1-24, looked up, variant S14G)
total amyloid plaque burden in cerebellum, hippocampus and cortex [5]: significantly reduced the total amyloid plaque burden
